Results: patent publication US6387880B1, “Transdermal N-[N-[5-[4-(aminoiminomethly)phenyl]-1-oxopentyl]-L-α-aspartyl]-L-phenylalainine or its esters and their pharmaceutically acceptable salts” (G.D. Searle & Co., priority 1996, dated 2002)
Several values for one entry are separate records, joined by “and”; a condition that tells them apart may be missing. Identical values can stand only once.

Test: Transdermal shaved rat model: radiolabelled compound in gel patch, amount recovered in urine and feces
Conditions: for Mg transported in Feces 24 Hrs / Mg transported in Feces 48 Hrs / Mg transported in Feces 72 Hrs / Mg transported in Urine 24 Hrs / Mg transported in Urine 48 Hrs / Mg transported in Urine 72 Hrs / Mg transported Total (feces + urine) / Mg transported Total, Mean: diethyl ester section, transdermal patch; for Mg transported in Feces 24 Hrs / Mg transported in Feces 48 Hrs / Mg transported in Feces 72 Hrs / Mg transported in Urine 24 Hrs / Mg transported in Urine 48 Hrs / Mg transported in Urine 72 Hrs / Mg transported Total (feces + urine): individual rats; for Mg transported Total (feces + urine): 72 Hrs; for Mg transported Total, Mean: mean of 4 rats
From the text: Rats were anesthetized with N2O/O2 and [sequence] fluorocarbon anesthesia using a metering device (Quantifier VMC Anesthesia Machine, Matrix Media Inc.) The rat's back was carefully shaved using an electric razor the day before the transdermal experiment, and no abrasions in the skin surface were apparent.
Compound was applied to the skin using a Hilltop Chambers® transdermal delivery plastic device, in which the compound was contained in a 3% hydroxypropyl cellulose gel. The device was glued in place using cyanomethacrylate (Superbinder 495, Newark Electronics).
The aqueous formulation was 2% in N-[N-[5-[4-(aminoiminomethyl)phenyl]-1-oxopentyl]-L-α-aspartyl]-L-phenylalanine, monohydrochloride (10 mg N-[N-[5-[4-(aminoiminomethyl)phenyl]-1-oxopentyl]-L-α-aspartyl]-L-phenylalanine, monohydrochloride 0.5 ml gel/2.5 cm^2 patch). N(N-[5-[4-(aminoiminomethyl)-phenyl]-1-oxopentyl]-L-α-aspartyl]-L-phenylalanine, monohydrochloride was neutralized to pH 7.4 with KOH and buffered with 5 mM HEPES N-[2-hydroxyethyl] piperazine-N′-[2-ethanesulfonic acid]in 90% water, 10% propylene glycol. The N-methyl pyrrolidone formulation was made by dissolving 100 mg [^3H] N-[N-[5-[4-(aminoiminomethyl)phenyl]-1-oxopentyl]-L-α-aspartyl]-L-phenylalanine, monohydrochloride [15 microcuries] in 400 microliters N-methyl pyrrolidone. The 0.5 ml solution was made into a gel by adding 15 mg hydroxypropyl cellulose and incubating at ambient temperatures for 16 hours. Thirty microcuries [^3H] N-[N-[5-[4-(aminoiminomethyl)phenyl]-1-oxopentyl]-L-α-aspartyl]-L-phenylalanine, monohydrochloride (specific activity: 928 mCurie/mmol) was added as a tracer. The amount of compound in a sample was calculated from the number of counts detected and the specific radioactivity of the compound in the patch.
Urine and feces were collected daily after patch application as indicated in the Table I. Counts were combined to achieve the total amount delivered. Urine was counted directly by scintillography (Hionic Fluid, Packard Co., Mark Ill.), while feces, were processed by mechanical mixing in saline followed by oxidization of a dried aliquot to tritiated water in an oxidizer (Oxidizer Machine, Packard).

CCOC(=O)C[C@H](NC(=O)CCCCc1ccc(C(=N)N)cc1)C(=O)N[C@@H](Cc1ccccc1)C(=O)OCC [N-[N-[5-[4-(aminoiminomethyl)phenyl]-1-oxopentyl]-L-α-aspartyl]-L-phenylalanine, diethyl ester]
average amount delivered (2.5 cm^2 patch, rat): 4.6 ± 1.9 mg | Mg transported in Feces 24 Hrs (Ethanol): 0.05 Mg and 0.01 Mg (2×) and 0.04 Mg | Mg transported in Feces 48 Hrs (Ethanol): 3.16 Mg and 2.44 Mg and 4.09 Mg and 1.20 Mg | Mg transported in Feces 72 Hrs (Ethanol): 1.51 Mg and 2.33 Mg and 1.67 Mg and 0.43 Mg | Mg transported in Urine 24 Hrs (Ethanol): 0.02 Mg and 0.01 Mg and 0.00 Mg (2×) | Mg transported in Urine 48 Hrs (Ethanol): 0.27 Mg and 0.12 Mg and 0.16 Mg and 0.13 Mg | Mg transported in Urine 72 Hrs (Ethanol): 0.42 Mg and 0.19 Mg and 0.11 Mg (2×) | Mg transported Total (feces + urine) (Ethanol): 5.43 Mg and 5.10 Mg and 6.07 Mg and 1.88 Mg | Mg transported Total, Mean (Ethanol): 4.62 Mg | Mg transported in Feces 24 Hrs (Saline): 0.48 Mg and 0.67 Mg and 0.02 Mg (2×) | Mg transported in Feces 48 Hrs (Saline): 4.59 Mg and 3.88 Mg and 0.61 Mg and 1.21 Mg | Mg transported in Feces 72 Hrs (Saline): 0.84 Mg and 1.17 Mg and 0.49 Mg and 0.67 Mg | Mg transported in Urine 24 Hrs (Saline): 0.19 Mg and 0.17 Mg and 0.00 Mg (2×) | Mg transported in Urine 48 Hrs (Saline): 0.20 Mg and 0.16 Mg and 0.15 Mg and 0.13 Mg | Mg transported in Urine 72 Hrs (Saline): 0.09 Mg and 0.11 Mg and 0.05 Mg and 0.10 Mg | Mg transported Total (feces + urine) (Saline): 6.39 Mg and 6.16 Mg and 1.32 Mg and 2.09 Mg | Mg transported Total, Mean (Saline): 3.99 Mg
